The text below walks through data of patent US10927123B2, “Modulators of the beta-3 adrenergic receptor useful for the treatment or prevention of disorders related thereto” (Arena Pharmaceuticals, Inc., priority 2016, dated 2021).

In general, IC50 refers to the concentration at which inhibition is half-maximal.

The target in this assay is Beta-3 Adrenergic Receptor (Homo sapiens (Human), UniProt P13945). Kind of assay: HTRF cAMP antagonist assay (IC50 determination). The conditions noted are these: CHO-K1 cells stably expressing recombinant receptor; antagonism of isoproterenol at EC90; cAMP readout. It is filed as cell-based. The protocol: HTRF cAMP assays were performed according to manufacturer's instructions (Cisbio, cAMP Dynamic 2 Assay Kit; #62AM4PEJ). CHO-K1 cells stably expressing recombinant receptor were harvested and suspended in warm PBS to make a 300,000 cells/mL stock. This cell suspension was dispensed into 384 well assay plates (PerkinElmer ProxiPlate #6008280) at 5 μL per well (1500 cells/well) along with a cAMP standard curve.
Beta-3 Adrenergic Receptor, sequence (P13945 whole entry, species assumed): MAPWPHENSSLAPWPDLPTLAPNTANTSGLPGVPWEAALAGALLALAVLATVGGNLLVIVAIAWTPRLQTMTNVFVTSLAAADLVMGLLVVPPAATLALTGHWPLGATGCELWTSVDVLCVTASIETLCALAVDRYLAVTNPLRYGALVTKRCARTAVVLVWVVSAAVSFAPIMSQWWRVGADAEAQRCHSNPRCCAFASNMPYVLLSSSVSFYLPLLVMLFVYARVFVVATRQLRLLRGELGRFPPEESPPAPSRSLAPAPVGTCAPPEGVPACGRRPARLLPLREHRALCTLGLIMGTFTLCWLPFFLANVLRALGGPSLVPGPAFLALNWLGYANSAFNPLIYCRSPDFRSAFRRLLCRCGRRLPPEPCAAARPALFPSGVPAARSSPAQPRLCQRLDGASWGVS
Compounds were dissolved and serially diluted (5-fold) in DMSO to generate a 10-point dose response stock. The stock was then diluted 100-fold in assay buffer (PBS containing 1 mM IBMX) before a volume of 2.5 μL was added to the cells (the final, top concentration of compound in the dose-response is typically 10 or 100 μM). After a brief incubation, 2.5 μL of isoproterenol stock, prepared at a concentration 4 times its EC90 at the receptor of interest, was added to the wells. The EC90 for isoproterenol, a beta-adrenergic agonist, was determined in separate experiments using standard methods to measure agonist potencies.
Following a 1-hour incubation at room temperature, 5 μL of cAMP-D2 Reagent diluted in Lysis Buffer was added to each well followed by 5 μL of Cryptate Reagent. Plates were further incubated at room temperature for 1 hour prior to reading. Time resolved fluorescence measurements were collected on a suitable, HTRF-capable plate reader.
Counts from the plate reader were fit to the cAMP standard curve on the assay plate in order to determine cAMP concentrations in each well, and these values were used to construct dose-response curves to obtain IC50 values.
Background: TR-FRET usually uses a lanthanide donor and a delayed reading to cut background.

For `O=C1Cc2cc(S(=O)(=O)N3CCC4(CC3)C[C@@H](NC[C@H](O)COc3cccc(S(=O)(=O)C5CC5)c3)CO4)cnc2N1` [Compound 313, 5-((R)-3-((S)-3-(3-(cyclopropylsulfonyl)phenoxy)-2-hydroxypropylamino)-1-oxa-8-azaspiro[4.5]decan-8-ylsulfonyl)-1H-pyrrolo[2,3-b]pyridin-2(3H)-one], the IC50 came to 141 nM.

With `CS(=O)(=O)c1cccc(OC[C@@H](O)CNC2COC3(CCN(S(=O)(=O)c4ccc5c(Cl)cccc5c4)CC3)C2)c1` (stereo partly drawn) [Compound 59, (2S)-1-(8-(5-chloronaphthalen-2-ylsulfonyl)-1-oxa-8-azaspiro[4.5]decan-3-ylamino)-3-(3-(methylsulfonyl)phenoxy)propan-2-ol], the IC50 was determined as 12.3 nM.

For the compound `CCn1cc(S(=O)(=O)N2CCC3(CC2)C[C@@H](NC[C@@H](O)COc2cccc(S(C)(=O)=O)c2)CO3)c(=O)c2ccccc21` [Compound 337, 1-ethyl-3-((R)-3-((R)-2-hydroxy-3-(3-(methylsulfonyl)phenoxy)propylamino)-1-oxa-8-azaspiro[4.5]decan-8-ylsulfonyl)quinolin-4(1H)-one], the IC50 was 1690 nM.

As for `CS(=O)(=O)c1cccc(OC[C@@H](O)CNC2COC3(CCN(S(=O)(=O)c4ccc(-c5ccccc5)s4)CC3)C2)c1` (stereo partly drawn) [Compound 51, (2S)-1-(3-(methylsulfonyl)phenoxy)-3-(8-(5-phenylthiophen-2-ylsulfonyl)-1-oxa-8-azaspiro[4.5]decan-3-ylamino)propan-2-ol], the IC50 was determined as 17.4 nM.

`Cc1nc2c(cc1S(=O)(=O)N1CCC3(CC1)C[C@@H](NC[C@H](O)COc1cccc(S(=O)(=O)C4CC4)c1)CO3)N(C)CCO2` [Compound 259, (S)-1-(3-(cyclopropylsulfonyl)phenoxy)-3-((R)-8-(1,6-dimethyl-2,3-dihydro-1H-pyrido[2,3-b][1,4]oxazin-7-ylsulfonyl)-1-oxa-8-azaspiro[4.5]decan-3-ylamino)propan-2-ol]: the half-maximal inhibitory concentration (IC50) came out at 158 nM.

In the case of `CCn1cc(S(=O)(=O)N2CCC3(CC2)C[C@@H](NC[C@H](O)COc2cccc(S(=O)(=O)C(C)F)c2)CO3)c(=O)c2ccccc21` (stereo partly drawn) [Compound 299, 1-ethyl-3-((3R)-3-((2S)-3-(3-(1-fluoroethylsulfonyl)phenoxy)-2-hydroxypropylamino)-1-oxa-8-azaspiro[4.5]decan-8-ylsulfonyl)quinolin-4(1H)-one], the half-maximal inhibitory concentration (IC50) was found to be 44.3 nM.

With `CCS(=O)(=O)c1cccc(OC[C@@H](O)CN[C@H]2COC3(CCN(S(=O)(=O)c4ccc5ncccc5c4)CC3)C2)c1` [Compound 112, (S)-1-(3-(ethylsulfonyl)phenoxy)-3-((R)-8-(quinolin-6-ylsulfonyl)-1-oxa-8-azaspiro[4.5]decan-3-ylamino)propan-2-ol], the IC50 stood at 39.5 nM.

On to `CS(=O)(=O)c1cccc(OC[C@@H](O)CN[C@H]2COC3(CCN(S(=O)(=O)c4c[nH]c5ccccc45)CC3)C2)c1` [Compound 311, (S)-1-((R)-8-(1H-indol-3-ylsulfonyl)-1-oxa-8-azaspiro[4.5]decan-3-ylamino)-3-(3-(methylsulfonyl)phenoxy)propan-2-ol], for which the concentration for half-maximal inhibition (IC50) came out at 43.5 nM.

`CS(=O)(=O)c1cccc(OC[C@@H](O)CNC2COC3(CCN(S(=O)(=O)c4ccccc4)CC3)C2)c1` (stereo partly drawn) [Compound 47, (2S)-1-(3-(methylsulfonyl)phenoxy)-3-(8-(phenylsulfonyl)-1-oxa-8-azaspiro[4.5]decan-3-ylamino)propan-2-ol]: the IC50 was 82.1 nM.

On to `CC(C)CS(=O)(=O)c1cccc(OC[C@@H](O)CNC2COC3(CCN(S(=O)(=O)c4ccc5ccccc5c4)CC3)C2)c1` (stereo partly drawn) [Compound 10, (2S)-1-(3-(isobutylsulfonyl)phenoxy)-3-(8-(naphthalen-2-ylsulfonyl)-1-oxa-8-azaspiro[4.5]decan-3-ylamino)propan-2-ol], for which the IC50 amounted to 25.1 nM.

For the compound `CCCS(=O)(=O)c1cccc(OC[C@@H](O)CN[C@H]2COC3(CCN(S(=O)(=O)c4cnc5ccccc5c4)CC3)C2)c1` [Compound 139, (S)-1-(3-(propylsulfonyl)phenoxy)-3-((R)-8-(quinolin-3-ylsulfonyl)-1-oxa-8-azaspiro[4.5]decan-3-ylamino)propan-2-ol], the IC50 worked out at 36.2 nM.

With `O=S(=O)(c1cncc(Br)c1)N1CCC2(CC1)C[C@H](NC[C@H](O)COc1cccc(S(=O)(=O)C3(CO)CC3)c1)CO2` [Compound 186, (S)-1-((S)-8-(5-bromopyridin-3-ylsulfonyl)-1-oxa-8-azaspiro[4.5]decan-3-ylamino)-3-(3-(1-(hydroxymethyl)cyclopropylsulfonyl)phenoxy)propan-2-ol], the half-maximal inhibitory concentration (IC50) was 78.6 nM.

Consider `CCOc1ccc(-c2ccc(C3(N)CC3)cc2)cc1S(=O)(=O)N1CCC2(CC1)C[C@@H](NC[C@H](O)COc1cccc(S(=O)(=O)C3CC3)c1)CO2` [Compound 254, (S)-1-((R)-8-(4′-(1-aminocyclopropyl)-4-ethoxybiphenyl-3-ylsulfonyl)-1-oxa-8-azaspiro[4.5]decan-3-ylamino)-3-(3-(cyclopropylsulfonyl)phenoxy)propan-2-ol], for which the IC50 turned out to be 41.8 nM.

With `CCS(=O)(=O)c1cccc(OC[C@@H](O)CN[C@H]2COC3(CCN(S(=O)(=O)c4cnc5ccccc5c4)CC3)C2)c1` [Compound 122, (S)-1-(3-(ethylsulfonyl)phenoxy)-3-((R)-8-(quinolin-3-ylsulfonyl)-1-oxa-8-azaspiro[4.5]decan-3-ylamino)propan-2-ol], the IC50 turned out to be 7.81 nM.

For the compound `CS(=O)(=O)c1cccc(OC[C@@H](O)CNC2COC3(CCN(S(=O)(=O)c4cccnc4)CC3)C2)c1` (stereo partly drawn) [Compound 46, (2S)-1-(3-(methylsulfonyl)phenoxy)-3-(8-(pyridin-3-ylsulfonyl)-1-oxa-8-azaspiro[4.5]decan-3-ylamino)propan-2-ol], the IC50 came to 87 nM.

With `CS(=O)(=O)Cc1cccc(OC[C@@H](O)CN[C@H]2COC3(CCN(S(=O)(=O)c4ccc5ncccc5c4)CC3)C2)c1` [Compound 336, (S)-1-(3-(methylsulfonylmethyl)phenoxy)-3-((R)-8-(quinolin-6-ylsulfonyl)-1-oxa-8-azaspiro[4.5]decan-3-ylamino)propan-2-ol], the IC50 is 102 nM.

On to `CCOc1ccc(-c2ccc(C3(N)CC3)cc2)cc1S(=O)(=O)N1CCC2(CC1)C[C@H](NC[C@H](O)COc1cccc(S(=O)(=O)CC)c1)CO2` [Compound 256, (S)-1-((S)-8-(4′-(1-aminocyclopropyl)-4-ethoxybiphenyl-3-ylsulfonyl)-1-oxa-8-azaspiro[4.5]decan-3-ylamino)-3-(3-(ethylsulfonyl)phenoxy)propan-2-ol], for which the IC50 stood at 32.6 nM.

For the compound `Cc1noc(C)c1S(=O)(=O)N1CCC2(CC1)CC(NC[C@H](O)COc1cccc(S(C)(=O)=O)c1)CO2` (stereo partly drawn) [Compound 52, (2S)-1-(8-(3,5-dimethylisoxazol-4-ylsulfonyl)-1-oxa-8-azaspiro[4.5]decan-3-ylamino)-3-(3-(methylsulfonyl)phenoxy)propan-2-ol], the IC50 was 61.2 nM.

As to `CS(=O)(=O)c1cccc(OC[C@@H](O)CNC2COC3(CCN(C(=O)Cc4csc(N)n4)CC3)C2)c1` (stereo partly drawn) [Compound 56, 2-(2-aminothiazol-4-yl)-1-(3-((S)-2-hydroxy-3-(3-(methylsulfonyl)phenoxy)propylamino)-1-oxa-8-azaspiro[4.5]decan-8-yl)ethanone], the 50% inhibitory concentration (IC50) is 1990 nM.
